Assay results reported in patent publication US12472272B2, “Radiolabelled compounds for diagnosis or treatment of prostate-specific membrane antigen- expressing cancer” (PROVINCIAL HEALTH SERVICES AUTHORITY, priority 2019, dated 2025).

Test system: PSMA-expressing cancer xenografts (LNCaP)
Experiment: Biodistribution of ^177Lu-labeled HTK03041
Type: in vivo, mice
Settings: for Tissue (% ID/g): Adrenal glands / Tissue (% ID/g): Blood / Tissue (% ID/g): Bone / Tissue (% ID/g): Brain / Tissue (% ID/g): Fat / Tissue (% ID/g): Heart / Tissue (% ID/g): Intestine / Tissue (% ID/g): Kidneys / Tissue (% ID/g): Lacrimal / Tissue (% ID/g): Liver / Tissue (% ID/g): Lungs / Tissue (% ID/g): Muscle / Tissue (% ID/g): Pancreas / Tissue (% ID/g): Salivary / Tissue (% ID/g): Seminal / Tissue (% ID/g): Spleen / Tissue (% ID/g): Stomach / Tissue (% ID/g): Tail / Tissue (% ID/g): Testes / Tissue (% ID/g): Thyroid / Tissue (% ID/g): Tumor / Tissue (% ID/g): Urine / tumor-to-background contrast ratio Tumor: Blood / tumor-to-background contrast ratio Tumor: Muscle / tumor-to-background contrast ratio Tumor: kidney: ^177Lu
Experimental: Imaging and biodistribution experiments were performed using NODSCID 1L2RγKO male mice. Mice were anesthetized by inhalation with 2% isoflurane in oxygen, and implanted subcutaneously with 1×10^7 LNCaP cells behind left shoulder. Mice were imaged or used in biodistribution studies when the tumor grew up to reach 5-8 mm in diameter during 5-6 weeks.
SPECT/CT imaging experiments were conducted using the MlLabs (Utrecht, the Netherlands) U-SPECT-II/CT scanner. Each tumor bearing mouse was injected with ˜37 MBq of ^177Lu-labeled HTK03041 through the tail vein under anesthesia (2% isoflurane in oxygen). The mice were allowed to recover and roam freely in their cage and imaged at 1, 4, 24, 72 and 120 hours after injection. At each time point, the mice were sedated again and positioned in the scanner. A 5-min CT scan was conducted first for anatomical reference with a voltage setting at 60 kV and current at 615 μA followed by a 60-min static emission scan acquired in list mode using an ultra-high resolution multi-pinhole rat-mouse (1 mm pinhole size) collimator. Data were reconstructed using the U-SPECT II software with a 20% window width on three energy windows. The photopeak window was centered at 208 keV, with lower scatter and upper scatter windows centered at 170 and 255 keV, respectively. Reconstruction parameters used maximum-likelihood expectation maximization (3 iterations), pixel-based ordered subset expectation maximization (16 subsets), and a post-processing filter (Gaussian blurring) of 0.5 mm. Images were decay corrected to injection time in PMOD (PMOD Technologies, Switzerland) then converted to DICOM for qualitative visualization in Inveon Research Workplace (Siemens Medical Solutions USA, Inc.).
For biodistribution studies, the mice were injected with the radiotracer as described above. At predetermined time points (1 or 3 h for ^68Ga studies; 1, 4, 24, 72, or 120 h for ^177Lu studies), the mice was anesthetized with 2% isoflurane inhalation, and euthanized by CO2 inhalation. Blood was withdrawn immediately from the heart, and the organs/tissues of interest were collected. The collected organs/tissues were weighed and counted using a Perkin Elmer (Waltham, MA) Wizard2 2480 gamma counter. The uptake in each organ/tissue was normalized to the injected dose using a standard curve, and expressed as the percentage of the injected dose per gram of tissue (% ID/g).

## O=C([O-])CN1CCN(CC(=O)[O-])CCN(CC(=O)NC[C@H]2CC[C@H](C(=O)N[C@@H](Cc3c4ccccc4cc4ccccc34)C(=O)NCCCC[C@H](NC(=O)N[C@@H](CCC(=O)O)C(=O)O)C(=O)O)CC2)CCN(CC(=O)[O-])CC1.[177Lu+3] [^177Lu-HTK03041]
LNCaP tumor-bearing mice
  peaked tumor uptake: ~20 % ID/g
1 h post-injection
  Tissue (% ID/g): Adrenal glands: 5.53 ± 1.90 % ID/g
  Tissue (% ID/g): Blood: 0.84 ± 0.15 % ID/g
  Tissue (% ID/g): Bone: 0.29 ± 0.07 % ID/g
  Tissue (% ID/g): Brain: 0.04 ± 0.01 % ID/g
  Tissue (% ID/g): Fat: 1.09 ± 0.20 % ID/g
  Tissue (% ID/g): Heart: 2.44 ± 0.43 % ID/g
  Tissue (% ID/g): Intestine: 1.25 ± 0.15 % ID/g
  Tissue (% ID/g): Kidneys: 98.6 ± 9.27 % ID/g
  Tissue (% ID/g): Lacrimal: 0.03 ± 0.04 % ID/g
  Tissue (% ID/g): Liver: 1.91 ± 0.38 % ID/g
  Tissue (% ID/g): Lungs: 4.41 ± 0.49 % ID/g
  Tissue (% ID/g): Muscle: 0.94 ± 0.20 % ID/g
  Tissue (% ID/g): Pancreas: 1.61 ± 0.24 % ID/g
  Tissue (% ID/g): Salivary: 5.88 ± 0.82 % ID/g
  Tissue (% ID/g): Seminal: 1.22 ± 0.85 % ID/g
  Tissue (% ID/g): Spleen: 8.80 ± 2.53 % ID/g
  Tissue (% ID/g): Stomach: 0.47 ± 0.18 % ID/g
  Tissue (% ID/g): Tail: 3.41 ± 3.03 % ID/g
  Tissue (% ID/g): Testes: 1.01 ± 0.17 % ID/g
  Tissue (% ID/g): Thyroid: 3.38 ± 0.44 % ID/g
  Tissue (% ID/g): Tumor: 10.8 ± 1.57 % ID/g
  Tissue (% ID/g): Urine: 160 ± 49.6 % ID/g
  tumor-to-background contrast ratio Tumor: Blood: 13.4 ± 4.08
  tumor-to-background contrast ratio Tumor: Muscle: 12.1 ± 4.21
  tumor-to-background contrast ratio Tumor: kidney: 0.11 ± 0.02
4 h post-injection
  Tissue (% ID/g): Adrenal glands: 3.41 ± 0.54 % ID/g
  Tissue (% ID/g): Blood: 0.31 ± 0.04 % ID/g
  Tissue (% ID/g): Bone: 0.45 ± 0.53 % ID/g
  Tissue (% ID/g): Brain: 0.05 ± 0.05 % ID/g
  Tissue (% ID/g): Fat: 0.56 ± 0.16 % ID/g
  Tissue (% ID/g): Heart: 1.69 ± 0.13 % ID/g
  Tissue (% ID/g): Intestine: 0.95 ± 0.08 % ID/g
  Tissue (% ID/g): Kidneys: 101 ± 13.3 % ID/g
  Tissue (% ID/g): Lacrimal: 0.02 ± 0.01 % ID/g
  Tissue (% ID/g): Liver: 1.46 ± 0.17 % ID/g
  Tissue (% ID/g): Lungs: 3.20 ± 0.41 % ID/g
  Tissue (% ID/g): Muscle: 0.56 ± 0.15 % ID/g
  Tissue (% ID/g): Pancreas: 1.15 ± 0.13 % ID/g
  Tissue (% ID/g): Salivary: 2.18 ± 0.56 % ID/g
  Tissue (% ID/g): Seminal: 0.57 ± 0.12 % ID/g
  Tissue (% ID/g): Spleen: 3.22 ± 1.01 % ID/g
  Tissue (% ID/g): Stomach: 0.37 ± 0.06 % ID/g
  Tissue (% ID/g): Tail: 1.06 ± 0.60 % ID/g
  Tissue (% ID/g): Testes: 0.92 ± 0.10 % ID/g
  Tissue (% ID/g): Thyroid: 2.10 ± 0.19 % ID/g
  Tissue (% ID/g): Tumor: 18.7±2.96 % ID/g
  Tissue (% ID/g): Urine: 84.6 ± 39.3 % ID/g
  tumor-to-background contrast ratio Tumor: Blood: 60.3 ± 4.81
  tumor-to-background contrast ratio Tumor: Muscle: 34.4 ± 8.39
  tumor-to-background contrast ratio Tumor: kidney: 0.19 ± 0.02
24 h post-injection
  Tissue (% ID/g): Adrenal glands: 0.76 ± 0.10 % ID/g
  Tissue (% ID/g): Blood: 0.07 ± 0.00 % ID/g
  Tissue (% ID/g): Bone: 0.07 ± 0.02 % ID/g
  Tissue (% ID/g): Brain: 0.01 ± 0.00 % ID/g
  Tissue (% ID/g): Fat: 0.16 ± 0.02 % ID/g
  Tissue (% ID/g): Heart: 0.41 ± 0.07 % ID/g
  Tissue (% ID/g): Intestine: 0.30 ± 0.06 % ID/g
  Tissue (% ID/g): Kidneys: 20.3 ± 6.51 % ID/g
  Tissue (% ID/g): Lacrimal: 0.00 ± 0.00 % ID/g
  Tissue (% ID/g): Liver: 0.42 ± 0.08 % ID/g
  Tissue (% ID/g): Lungs: 0.83 ± 0.12 % ID/g
  Tissue (% ID/g): Muscle: 0.15 ± 0.03 % ID/g
  Tissue (% ID/g): Pancreas: 0.26 ± 0.04 % ID/g
